Consider 20 compounds from US20070299072A1, “KV1.5 POTASSIUM CHANNEL INHIBITORS” (Wyeth, priority 2006, published 2007).

Type in all cases: cell-based
The target of series [1] is T1, Kv1.5 (Homo sapiens, UniProt P22460).
T1 construct: expressed in transfected cells; host or cells: HEK or LTK- cells
In words: Kv1.5 Patch Clamp EP (whole cell patch clamp; single point at 1 μM and IC50). The following applies: for IC50: concentration response; for inhibition at 1 µM: single point at 1.0 μM, Kv1.5 stably over expressed in HEK or LTK- cells. The protocol: The external solution is standard Tyrodes solution. […] Inhibition was measured at the end of the 1 second pulses and expressed relative to controls. Initial Kv1.5 inhibition is estimated by single point determinations done at 1 μM.
A general note: The patch-clamp technique gives a direct electrical read-out from membranes.

Series [2] addresses T2, HERG (Homo sapiens, UniProt Q12809).
T2 construct: expressed in transfected cells; host or cells: HEK cells
The series is described as follows: HERG Patch Clamp EP (whole cell patch clamp, tail currents; single point at 10 μM and IC50). The note with it: for IC50: concentration response; for inhibition at 10 µM: human, HEK cells stably overexpressing HERG, single point at 10 μM, HERG in HEK cells, read-out: HERG % Inhib. @ 10 μM. The source says: The external solution is standard Tyrodes solution.

Series [3] deals with L-type calcium channels. In words: FLIPR L-type Calcium Channel Assay (calcium influx in HL-1 cells after KCl). The note with it: read-out: L-type Ca2+ IC50. Here is the method: HL-1 cells expressing endogenous L-type calcium channels are removed from culture flasks using trypsin, plated on fibronectin/gelatin-coated, clear-bottomed, black-walled 96-well microplates in Claycomb media (JRH Biosciences #51800) containing 10% fetal bovine serum, 4 mM L-glutamine, and 10 μM norepinephrine, and grown to confluency overnight. The next day, growth medium is aspirated from confluent cell monolayers and replaced with 100 μL per well Tyrode's solution (in mM: 130 NaCl, 4 KCl, 1.8 CaCl2, 1.0 MgCl2, 20 HEPES, 10 glucose, pH 7.35) and 50 μL per well FLIPR Calcium Assay kit, component A (#R-8033, Molecular Devices Corporation) and incubated for 60 min. in a 5% CO2 37° C. incubator. 50 μL per well test compounds are added to the plates and further incubated for 15 min. in a 5% CO2 37° C. incubator. All final solutions contain the anion exchange inhibitor, probenecid (2.5 mM). The 96-well plates are then placed in the center position of the FLIPR 1 (Fluorometric Imaging Plate Reader, Molecular Devices Corporation). Cell monolayers in each well are simultaneously illuminated at 488 nm with an Argon ion laser, and fluorescence emission is monitored using a 510-570 nm bandpass filter and a cooled CCD camera. To depolarize the plasma membrane and activate L-type calcium channels, 50 μL per well of 20 mM KCl (final concentration) are dispensed simultaneously to all 96 wells using the FLIPR's automatic 96-well pipettor. Fluorescence measurements are captured for 5 min. following KCl addition. Calcium influx, expressed as % control, is calculated for each concentration of test compound and concentration-response curves and IC50 values are generated using GraphPad Prism 4.0.

Molecules are shown by their SMILES.

T2 sequence (Q12809 whole entry): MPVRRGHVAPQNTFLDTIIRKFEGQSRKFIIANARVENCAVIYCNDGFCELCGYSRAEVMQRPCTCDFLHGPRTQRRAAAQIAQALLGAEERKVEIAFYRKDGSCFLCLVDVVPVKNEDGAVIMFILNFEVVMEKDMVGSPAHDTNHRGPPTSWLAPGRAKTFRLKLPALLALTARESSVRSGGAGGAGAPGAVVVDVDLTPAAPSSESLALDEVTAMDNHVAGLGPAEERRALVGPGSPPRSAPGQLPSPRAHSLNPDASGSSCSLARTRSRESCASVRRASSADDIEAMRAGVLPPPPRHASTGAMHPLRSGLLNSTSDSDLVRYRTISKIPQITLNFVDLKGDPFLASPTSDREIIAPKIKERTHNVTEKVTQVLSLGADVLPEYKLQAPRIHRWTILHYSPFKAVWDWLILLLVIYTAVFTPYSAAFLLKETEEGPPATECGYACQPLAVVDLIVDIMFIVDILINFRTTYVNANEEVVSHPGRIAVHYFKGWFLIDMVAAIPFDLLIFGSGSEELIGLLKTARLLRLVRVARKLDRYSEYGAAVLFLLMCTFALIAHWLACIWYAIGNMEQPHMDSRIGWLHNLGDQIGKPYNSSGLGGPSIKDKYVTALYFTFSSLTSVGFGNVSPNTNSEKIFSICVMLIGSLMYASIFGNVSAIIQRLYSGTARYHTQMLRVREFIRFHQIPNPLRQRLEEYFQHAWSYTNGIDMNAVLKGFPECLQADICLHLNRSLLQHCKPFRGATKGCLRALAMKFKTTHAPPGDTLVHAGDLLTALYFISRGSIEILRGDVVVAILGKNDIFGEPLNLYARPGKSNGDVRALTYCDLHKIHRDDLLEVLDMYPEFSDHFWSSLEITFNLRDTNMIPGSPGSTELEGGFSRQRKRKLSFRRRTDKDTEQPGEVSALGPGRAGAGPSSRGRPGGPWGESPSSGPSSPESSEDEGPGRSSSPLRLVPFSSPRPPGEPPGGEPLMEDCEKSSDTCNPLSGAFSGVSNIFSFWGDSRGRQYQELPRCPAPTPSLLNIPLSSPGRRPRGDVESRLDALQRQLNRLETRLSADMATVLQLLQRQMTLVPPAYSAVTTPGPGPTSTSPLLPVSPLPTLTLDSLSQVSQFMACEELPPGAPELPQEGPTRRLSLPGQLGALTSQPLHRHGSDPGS
T1 sequence (P22460 whole entry): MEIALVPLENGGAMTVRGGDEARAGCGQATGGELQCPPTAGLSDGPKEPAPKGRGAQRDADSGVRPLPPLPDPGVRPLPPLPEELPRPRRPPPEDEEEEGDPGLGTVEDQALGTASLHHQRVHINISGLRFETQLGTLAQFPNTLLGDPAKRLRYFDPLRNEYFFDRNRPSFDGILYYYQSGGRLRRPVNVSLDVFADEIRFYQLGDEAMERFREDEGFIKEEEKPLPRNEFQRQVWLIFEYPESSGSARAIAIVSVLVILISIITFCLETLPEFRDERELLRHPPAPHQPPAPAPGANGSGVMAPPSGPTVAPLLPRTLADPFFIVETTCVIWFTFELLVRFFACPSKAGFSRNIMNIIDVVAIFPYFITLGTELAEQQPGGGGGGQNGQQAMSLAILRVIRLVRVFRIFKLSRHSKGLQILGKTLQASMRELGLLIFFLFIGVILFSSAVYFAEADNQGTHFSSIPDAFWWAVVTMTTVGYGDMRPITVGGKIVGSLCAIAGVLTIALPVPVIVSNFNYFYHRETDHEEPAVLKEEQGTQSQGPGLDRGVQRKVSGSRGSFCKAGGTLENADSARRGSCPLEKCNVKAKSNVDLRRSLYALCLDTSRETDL

Regarding `COc1ccc(CCN2C(=O)C3(CCN(C(=O)C4CC4)CC3)N(C)C2c2ccc(C3CC3)cc2)cc1` (centres unmarked) [Compound 4, 8-Cyclopropylcarbonyl-2-(4-cyclopropylphenyl)-3-[2-(4-methoxyphenyl)ethyl]-1-methyl-1,3,8-triaza-spiro[4.5]decan-4-one], in series [1], the IC50 (in general, the concentration needed to halve the response being measured) came to 151 nM and the inhibition at 1 µM was found to be 94%. For the same compound, in series [2], half-maximal inhibition (IC50) was put at 9.5 µM and the inhibition at 10 µM is 64%. Besides, in series [3], the IC50 came to 8 µM.
In the same order, the values of `COc1ccc(CCN2C(=O)C3(CCN(C(C)=O)CC3)N(C)C2c2ccc(C3CC3)cc2)cc1` (centres unmarked) [Compound 5, 8-Acetyl-2-(4-cyclopropylphenyl)-3-[2-(4-methoxyphenyl)ethyl]-1-methyl-1,3,8-triaza-spiro[4.5]decan-4-one] are 514 nM, 84%, 31 µM, 8% and 36 µM.
As for `COc1ccc(CCN2C(=O)C3(CCN(C(=O)C4CC4)CC3)N(C)C2c2ccc(OC(F)F)cc2)cc1` (centres unmarked) [Compound 6, 8-Cyclopropylcarbonyl-2-(4-difluoromethoxyphenyl)-3-[2-(4-methoxyphenyl)-ethyl]-1-methyl-1,3,8-triazaspiro[4.5]decan-4-one], in series [1], the inhibition at 1 µM was found to be 68%. The inhibition at 10 µM in series [2] worked out at 85%. In series [3], the IC50 was 13 µM.
Regarding `COc1ccc(CCN2C(=O)C3(CCN(C(N)=O)CC3)N(C)C2c2ccc(C3CC3)cc2)cc1` (centres unmarked) [Compound 7, 2-(4-Cyclopropylphenyl)-3-[2-(4-methoxyphenyl)ethyl]-1-methyl-4-oxo-1,3,8-triaza-spiro[4.5]decane-8-carboxylic acid amide], the IC50 was determined as 579 nM in series [1], 23.5 µM in series [2] and 9 µM in series [3]. Moreover, the inhibition at 1 µM in series [1] was found to be 87%. Moreover, in series [2], the inhibition at 10 µM worked out at 12%.
In series [1], `CNC(=O)N1CCC2(CC1)C(=O)N(CCc1ccc(OC)cc1)C(c1ccc(C3CC3)cc1)N2C` (centres unmarked) [Compound 8, 2-(4-Cyclopropylphenyl)-3-[2-(4-methoxyphenyl)ethyl]-1-methyl-4-oxo-1,3,8-triaza-spiro[4.5]decane-8-carboxylic acid methyl amide] gave an IC50 of 350 nM and an inhibition at 1 µM of 91%. Also, in series [2], the inhibition at 10 µM is 25%. In addition, the IC50 in series [3] was found to be 11 µM.
For the compound `COc1ccc(CCN2C(=O)C3(CCN(C(=O)N4CCCCC4)CC3)N(C)C2c2ccc(C3CC3)cc2)cc1` (centres unmarked) [Compound 9, 2-(4-Cyclopropylphenyl)-3-[2-(4-methoxyphenyl)ethyl]-1-methyl-8-(piperidine-1-carbonyl)-1,3,8-triaza-spiro[4.5]decan-4-one], in series [1], the inhibition at 1 µM turned out to be 96%. In addition, the inhibition at 10 µM in series [2] worked out at 60%. Further, the IC50 in series [3] stood at 6.2 µM.
In the same order, the values of `CCN(CC)c1ccc(C2N(CCc3ccc(OC)cc3)C(=O)C3(CCN(C(N)=O)CC3)N2C)cc1` (centres unmarked) [Compound 10, 2-[4-(Diethylamino)phenyl]-3-[2-(4-methoxyphenyl)ethyl]-1-methyl-4-oxo-1,3,8-triaza-spiro[4.5]decane-8-carboxylic acid amide] are 87%, 5% and 12 µM.
Turning to `COc1ccc(CCN2C(=O)C3(CCN(C(N)=O)CC3)N(C)C2c2ccc(C(F)(F)F)cc2)cc1` (centres unmarked) [Compound 11, 2-(4-Trifluoromethylphenyl)-3-[2-(4-methoxyphenyl)ethyl]-1-methyl-4-oxo-1,3,8-triaza-spiro[4.5]decane-8-carboxylic acid amide], the inhibition at 1 µM in series [1] is 29%. The inhibition at 10 µM in series [2] came to 33%.
Take `COc1ccc(CCN2C(=O)C3(CCN(C(N)=O)CC3)N(C)C2c2ccc(C(C)(C)C)cc2)cc1` (centres unmarked) [Compound 12, 2-(4-tert-Butylphenyl)-3-[2-(4-methoxyphenyl)ethyl]-1-methyl-4-oxo-1,3,8-triaza-spiro[4.5]decane-8-carboxylic acid amide]: in series [1], the IC50 worked out at 611 nM and the inhibition at 1 µM stood at 70%. Also, in series [2], the inhibition at 10 µM came out at 40%. The IC50 in series [3] was determined as 8 µM.
As for `COc1ccc(CCN2C(=O)C3(CCN(C(N)=O)CC3)N(C)C2c2ccc(OC(F)F)cc2)cc1` (centres unmarked) [Compound 13, 2-(4-Difluoromethoxyphenyl)-3-[2-(4-methoxyphenyl)ethyl]-1-methyl-4-oxo-1,3,8-triaza-spiro[4.5]decane-8-carboxylic acid amide], the inhibition at 1 µM in series [1] is 46%. Further, the inhibition at 10 µM in series [2] was 57%.
`CN1C(c2ccc(C3CC3)cc2)N(CCc2ccc(OC(F)(F)F)cc2)C(=O)C12CCN(C(N)=O)CC2` (centres unmarked) [Compound 14, 2-(4-Cyclopropylphenyl)-3-[2-(4-trifluoromethoxyphenyl)ethyl]-1-methyl-4-oxo-1,3,8-triaza-spiro[4.5]decane-8-carboxylic acid amide] registered an inhibition at 1 µM in series [1] of 59%. Also, in series [2], the inhibition at 10 µM amounted to 75%. The IC50 in series [3] amounted to 15 µM.
Compound `CCNC(=O)N1CCC2(CC1)C(=O)N(CCc1ccc(OC)cc1)C(c1ccc(C(C)(C)C)cc1)N2C` (centres unmarked) [Compound 15, 2-(4-tert-Butylphenyl)-3-[2-(4-methoxyphenyl)ethyl]-1-methyl-4-oxo-1,3,8-triaza-spiro[4.5]decane-8-carboxylic acid ethyl amide] had an inhibition at 1 µM in series [1] of 84%. In addition, in series [3], the IC50 was determined as 2.5 µM.
For `CCN(CC)C(=O)N1CCC2(CC1)C(=O)N(CCc1ccc(OC)cc1)C(c1ccc(C3CC3)cc1)N2C` (centres unmarked) [Compound 19, 2-(4-Cyclopropylphenyl)-3-[2-(4-methoxyphenyl)ethyl]-1-methyl-4-oxo-1,3,8-triaza-spiro[4.5]decane-8-carboxylic acid diethylamide], in that order: 97% and 5.3 µM.
For `COc1ccc(CCN2C(=O)C3(CCN(C(=O)N(C)OC)CC3)N(C)C2c2ccc(C3CC3)cc2)cc1` (centres unmarked) [Compound 28, 2-(4-Cyclopropylphenyl)-N-methoxy-3-[2-(4-methoxyphenyl)ethyl]-N,1-dimethyl-4-oxo-1,3,8-triazaspiro[4.5]decane-8-carboxamide], in that order: 88% and 8.4 µM.
In the same order, the values of `COc1ccc(CCN2C(=O)C3(CCN(C(=O)OC(C)C)CC3)N(C)C2c2ccc(C3CC3)cc2)cc1` (centres unmarked) [Compound 36, Isopropyl 2-(4-cyclopropylphenyl)-3-[2-(4-methoxyphenyl)ethyl]-1-methyl-4-oxo-1,3,8-triazaspiro[4.5]decane-8-carboxylate] are 92% and 7.4 µM.
`CCN(CC)c1ccc(C2N(CCc3ccc(OC)cc3)C(=O)C3(CCN(C(=O)OC(C)(C)C)CC3)N2C)cc1` (centres unmarked) [Compound 39, tert-Butyl 2-(4-diethylaminophenyl)-3-[2-(4-methoxyphenyl)ethyl]-1-methyl-4-oxo-1,3,8-triazaspiro[4.5]decane-8-carboxylate]: the inhibition at 1 µM in series [1] stood at 86%. Moreover, the IC50 in series [3] turned out to be 4.4 µM.
Turning to `CN1C(c2ccc(C3CC3)cc2)N(CCCc2ccccc2)C(=O)C12CCN(C(=O)OC(C)(C)C)CC2` (centres unmarked) [Compound 47, 2-(4-Cyclopropylphenyl)-1-methyl-4-oxo-3-(3-phenylpropyl)-1,3,8-triazaspiro-[4.5]decane-8-carboxylic acid tert-butyl ester], the inhibition at 1 µM in series [1] was found to be 75%. Besides, the IC50 in series [3] was determined as 20 µM.
In the same order, the values of `CNC(=O)N1CCC2(CC1)C(=O)N(CCCc1ccccc1)C(c1ccc(C3CC3)cc1)N2C` (centres unmarked) [Compound 51, 2-(4-Cyclopropylphenyl)-1-methyl-4-oxo-3-(3-phenylpropyl)-1,3,8-triazaspiro-[4.5]decane-8-carboxylic acid methylamide] are 73% and 10 µM.
In the case of `COc1ccc(CCN2C(=O)C3(CCN(C(=O)OC(C)(C)C)CC3)N(C)C2c2ccc(C3CC3)cc2)cc1` (centres unmarked) [Compound 65, 2-(4-cyclopropylphenyl)-3-[2-(4-methoxyphenyl)ethyl]-1-methyl-4-oxo-1,3,8-triaza-spiro[4.5]decane-8-carboxylic acid tert-butyl ester], the inhibition at 1 µM in series [1] amounted to 80%. In addition, in series [3], the IC50 came out at 3.6 µM.
As to `COc1ccc(CCN2C(=O)C3(CCN(C(=O)OC(C)(C)C)CC3)N(C)C2Cc2ccc(C(C)(C)C)cc2)cc1` (centres unmarked) [Compound 97, tert-butyl 2-(4-tert-butylbenzyl)-3-[2-(4-methoxyphenyl)ethyl]-1-methyl-4-oxo-1,3,8-triazaspiro[4.5]decane-8-carboxylate], the inhibition at 1 µM in series [1] worked out at 16%.
